Assay results reported in US20230365576A1, “BRM Targeting Compounds And Associated Methods Of Use” (Prelude Therapeutics Incorporated, priority 2022, published 2023).

Columns and labels:
SMARCA2 = molecular target: T1, SMARCA2 (Homo sapiens, UniProt P51531); experiment: SMARCA2 HiBiT degradation assay in HeLa cells; format: cell-based; conditions: 18 hours; for DC50: read-out: SMARCA2 IC50; for Dmax: HeLa
T1 construct: SMARCA2-HiBiT knock-in Hela monoclonal cell (CS302366); host or cells: HeLa (CRISPR HiBiT knock-in monoclonal line, heterozygous)
T1 sequence (P51531 whole entry): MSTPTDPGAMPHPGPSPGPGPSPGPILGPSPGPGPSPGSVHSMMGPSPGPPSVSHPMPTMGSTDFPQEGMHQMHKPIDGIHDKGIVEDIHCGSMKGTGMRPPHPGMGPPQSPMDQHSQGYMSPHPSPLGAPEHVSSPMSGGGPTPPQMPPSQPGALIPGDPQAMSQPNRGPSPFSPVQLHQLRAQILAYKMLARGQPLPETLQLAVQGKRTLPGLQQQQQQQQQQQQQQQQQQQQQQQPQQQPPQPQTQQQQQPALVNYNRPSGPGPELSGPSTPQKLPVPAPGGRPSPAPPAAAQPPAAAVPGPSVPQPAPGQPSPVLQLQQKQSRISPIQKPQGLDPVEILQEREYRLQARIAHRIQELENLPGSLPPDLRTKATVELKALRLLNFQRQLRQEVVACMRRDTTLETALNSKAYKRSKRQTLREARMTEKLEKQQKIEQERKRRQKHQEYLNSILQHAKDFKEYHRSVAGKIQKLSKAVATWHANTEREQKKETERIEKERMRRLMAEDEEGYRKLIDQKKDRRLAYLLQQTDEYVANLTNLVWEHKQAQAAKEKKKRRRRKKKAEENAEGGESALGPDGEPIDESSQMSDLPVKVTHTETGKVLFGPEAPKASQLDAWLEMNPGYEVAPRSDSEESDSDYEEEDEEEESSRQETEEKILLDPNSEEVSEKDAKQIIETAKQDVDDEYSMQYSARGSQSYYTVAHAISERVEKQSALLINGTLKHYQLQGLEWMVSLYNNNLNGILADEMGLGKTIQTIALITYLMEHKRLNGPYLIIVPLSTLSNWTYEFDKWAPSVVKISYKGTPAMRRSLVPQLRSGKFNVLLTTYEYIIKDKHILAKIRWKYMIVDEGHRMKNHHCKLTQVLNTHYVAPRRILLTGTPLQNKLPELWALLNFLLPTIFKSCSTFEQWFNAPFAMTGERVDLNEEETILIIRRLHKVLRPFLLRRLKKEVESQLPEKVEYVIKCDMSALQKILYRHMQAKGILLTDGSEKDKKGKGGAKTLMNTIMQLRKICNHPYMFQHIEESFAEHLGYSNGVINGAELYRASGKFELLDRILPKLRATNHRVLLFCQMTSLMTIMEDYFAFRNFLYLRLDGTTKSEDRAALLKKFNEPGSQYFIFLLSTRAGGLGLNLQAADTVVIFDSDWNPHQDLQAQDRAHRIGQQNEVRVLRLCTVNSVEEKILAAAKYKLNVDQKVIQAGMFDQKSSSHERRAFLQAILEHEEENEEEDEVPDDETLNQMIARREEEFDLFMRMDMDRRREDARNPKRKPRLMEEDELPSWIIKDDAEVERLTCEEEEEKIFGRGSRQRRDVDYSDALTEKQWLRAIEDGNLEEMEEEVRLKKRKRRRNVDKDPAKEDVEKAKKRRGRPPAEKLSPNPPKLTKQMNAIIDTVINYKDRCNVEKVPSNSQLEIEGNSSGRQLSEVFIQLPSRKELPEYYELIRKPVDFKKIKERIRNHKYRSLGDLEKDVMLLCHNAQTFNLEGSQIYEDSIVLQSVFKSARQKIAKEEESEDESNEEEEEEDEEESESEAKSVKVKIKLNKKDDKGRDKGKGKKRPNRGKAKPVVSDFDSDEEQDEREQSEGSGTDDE
Summary of the method: (§1)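 Degradation measured as HiBiT luminescence (Nano-Glo lytic reagent) after 18 h compound exposure at 37° C. Cells were HeLa clones carrying heterozygous HiBiT tags on SMARCA2 or SMARCA4, 2500 per well; compounds at 3-fold serial dilution from 10 μM.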

SMARCA4 = molecular target: T2, SMARCA4 (Homo sapiens, UniProt P51532); experiment: SMARCA4 HiBiT degradation assay in HeLa cells; format: cell-based; conditions: 18 hours; for Dmax: HeLa
T2 construct: SMARCA4-HiBiT knock-in Hela monoclonal cell (CS3023226) were purchased from Promega; host or cells: HeLa (CRISPR HiBiT knock-in monoclonal line, heterozygous)
T2 sequence (P51532 whole entry): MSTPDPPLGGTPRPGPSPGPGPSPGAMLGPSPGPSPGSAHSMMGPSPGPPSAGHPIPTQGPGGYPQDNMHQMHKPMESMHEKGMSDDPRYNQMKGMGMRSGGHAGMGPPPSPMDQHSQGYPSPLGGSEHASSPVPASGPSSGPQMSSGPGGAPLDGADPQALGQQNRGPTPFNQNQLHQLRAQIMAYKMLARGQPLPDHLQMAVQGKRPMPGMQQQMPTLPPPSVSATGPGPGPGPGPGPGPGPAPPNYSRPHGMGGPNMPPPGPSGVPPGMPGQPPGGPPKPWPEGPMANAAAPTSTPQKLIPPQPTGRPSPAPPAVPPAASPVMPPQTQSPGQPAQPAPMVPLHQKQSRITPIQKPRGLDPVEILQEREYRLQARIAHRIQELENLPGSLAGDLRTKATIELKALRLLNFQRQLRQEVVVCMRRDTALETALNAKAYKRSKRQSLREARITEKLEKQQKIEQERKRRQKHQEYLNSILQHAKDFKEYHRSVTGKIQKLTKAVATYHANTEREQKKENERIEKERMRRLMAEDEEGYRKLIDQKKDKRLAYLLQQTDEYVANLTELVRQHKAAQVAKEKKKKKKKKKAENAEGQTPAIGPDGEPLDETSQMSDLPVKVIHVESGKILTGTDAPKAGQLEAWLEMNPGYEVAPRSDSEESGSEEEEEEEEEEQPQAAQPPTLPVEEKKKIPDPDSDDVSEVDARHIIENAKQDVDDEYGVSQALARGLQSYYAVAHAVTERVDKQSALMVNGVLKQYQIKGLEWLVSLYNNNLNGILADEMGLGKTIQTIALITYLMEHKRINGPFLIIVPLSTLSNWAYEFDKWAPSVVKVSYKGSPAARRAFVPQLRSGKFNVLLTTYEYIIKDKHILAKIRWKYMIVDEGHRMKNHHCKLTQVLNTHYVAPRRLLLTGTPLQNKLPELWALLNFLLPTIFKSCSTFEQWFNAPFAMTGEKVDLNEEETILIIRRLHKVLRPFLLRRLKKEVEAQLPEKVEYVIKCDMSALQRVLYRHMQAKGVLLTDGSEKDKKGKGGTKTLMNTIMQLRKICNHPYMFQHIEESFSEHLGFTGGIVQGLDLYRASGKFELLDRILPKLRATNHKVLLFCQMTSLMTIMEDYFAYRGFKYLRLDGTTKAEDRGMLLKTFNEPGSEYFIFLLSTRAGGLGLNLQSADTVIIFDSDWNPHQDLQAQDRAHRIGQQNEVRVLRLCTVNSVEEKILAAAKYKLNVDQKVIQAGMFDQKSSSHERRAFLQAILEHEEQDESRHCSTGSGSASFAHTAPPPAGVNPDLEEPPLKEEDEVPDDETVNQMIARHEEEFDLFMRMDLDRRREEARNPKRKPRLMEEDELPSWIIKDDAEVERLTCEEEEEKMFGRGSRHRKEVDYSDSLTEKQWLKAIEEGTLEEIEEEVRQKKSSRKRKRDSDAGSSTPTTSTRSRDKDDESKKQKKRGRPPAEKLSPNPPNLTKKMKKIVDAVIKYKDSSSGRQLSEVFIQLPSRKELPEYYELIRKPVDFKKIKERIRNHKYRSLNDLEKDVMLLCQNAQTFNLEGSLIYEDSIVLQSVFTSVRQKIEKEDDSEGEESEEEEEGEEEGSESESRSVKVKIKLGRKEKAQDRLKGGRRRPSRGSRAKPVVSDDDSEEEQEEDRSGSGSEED
Summary of the method: as §1

SMILES | DC50 (SMARCA2) | Dmax (SMARCA2) | DC50 (SMARCA4) | SMARCA4 DMax % (SMARCA4) | SMARCA2 DMax % (SMARCA2) | Dmax (SMARCA4)
CCC12CNc3nnc(-c4cc(F)cc(F)c4O)cc3N1CCN(C(=O)C1(F)CCC(CN3CCN(c4ccc5c(c4)C(=O)N([C@H]4CCC(=O)NC4=O)C5)CC3)CC1)C2 (single isomer, unassigned) [Example 102] | < 100 nM | > 75% | < 100 nM | A (A=Dmax>75%) | – | –
CCC12CNc3nnc(-c4cc(F)cc(F)c4O)cc3N1CCN(C(=O)C1(F)CCC(CN3CCN(c4ccc5c(c4)C(=O)N([C@H]4CCC(=O)NC4=O)C5)CC3)CC1)C2 (single isomer, unassigned) [Example 103] | < 100 nM | – | < 100 nM | B (B=50%<Dmax≤75%) | A (A=Dmax>75%) | –
CCC12CNc3nnc(-c4cccc(Cl)c4O)cc3N1CCN(C(=O)C1(F)CCN(CC3CCN(c4ccc5c(c4)C(=O)N([C@H]4CCC(=O)NC4=O)C5)CC3)CC1)C2 (single isomer, unassigned) [Example 106] | < 100 nM | > 75% | < 100 nM | – | – | > 75%
CCC12CNc3nnc(-c4cccc(F)c4O)cc3N1CCN(C(=O)C1(F)CCN(CC3CCN(c4ccc5c(c4)C(=O)N([C@H]4CCC(=O)NC4=O)C5)CC3)CC1)C2 (single isomer, unassigned) [Example 107] | < 100 nM | > 75% | 100 to 1000 nM | C (C=Dmax<50%) | – | –
CCC12CNc3nnc(-c4cccc(F)c4O)cc3N1CCN(C(=O)C1(F)CCN(CC3CCN(c4ccc5c(c4)C(=O)N([C@H]4CCC(=O)NC4=O)C5)CC3)CC1)C2 (single isomer, unassigned) [Example 108] | < 100 nM | – | < 100 nM | A (A=Dmax>75%) | A (A=Dmax>75%) | –
CCC12CNc3nnc(-c4cc(F)cc(F)c4O)cc3N1CCN(C(=O)C1(F)CCN(CC3CCN(c4ccc5c(c4)C(=O)N([C@H]4CCC(=O)NC4=O)C5)CC3)CC1)C2 (single isomer, unassigned) [Example 109] | < 100 nM | > 75% | < 100 nM | – | – | > 75%
C[C@@H]1CN(CC2CCN(c3ccc4c(c3)C(=O)N(C3CCC(=O)NC3=O)C4)CC2)C[C@H](C)N1C(=O)N1CCN2c3cc(-c4cccc(F)c4O)nnc3NC[C@H]2C1 (stereo partly drawn) [Example 1, 3-(6-(4-(((3R,5S)-4-((S)-2-(3-fluoro-2-hydroxyphenyl)-6,6a,7,8,9,10-hexahydro-5H-pyrazino[1′,2′:4,5]pyrazino[2,3-c]pyridazine-8-carbonyl)-3,5-dimethylpiperazin-1-yl)methyl)piperidin-1-yl)-1-oxoisoindolin-2-yl)piperidine-2,6-dione] | < 100 nM | > 75% | < 100 nM | – | – | < 50%
C[C@@H]1CN(CC2CN(c3ccc4c(c3)C(=O)N(C3CCC(=O)NC3=O)C4)C2)C[C@H](C)N1C(=O)N1CCN2c3cc(-c4cccc(F)c4O)nnc3NC[C@H]2C1 (stereo partly drawn) [Example 2, 3-(6-(3-(((3R,5S)-4-((S)-2-(3-fluoro-2-hydroxyphenyl)-6,6a,7,8,9,10-hexahydro-5H-pyrazino[1′,2′:4,5]pyrazino[2,3-c]pyridazine-8-carbonyl)-3,5-dimethylpiperazin-1-yl)methyl)azetidin-1-yl)-1-oxoisoindolin-2-yl)piperidine-2,6-dione] | < 100 nM | > 75% | < 100 nM | – | – | < 50%
C[C@@H]1CN(C[C@H]2CN(c3ccc4c(c3)CN(C3CCC(=O)NC3=O)C4=O)CCO2)C[C@H](C)N1C(=O)N1CCN2c3cc(-c4cccc(F)c4O)nnc3NC[C@H]2C1 (stereo partly drawn) [Example 3, 3-(5-((S)-2-(((3R,5S)-4-((S)-2-(3-fluoro-2-hydroxyphenyl)-6,6a,7,8,9,10-hexahydro-5H-pyrazino[1′,2′:4,5]pyrazino[2,3-c]pyridazine-8-carbonyl)-3,5-dimethylpiperazin-1-yl)methyl)morpholino)-1-oxoisoindolin-2-yl)piperidine-2,6-dione] | < 100 nM | > 75% | < 100 nM | – | – | < 50%
C[C@H]1CN2c3cc(-c4cccc(F)c4O)nnc3NC[C@H]2CN1C(=O)N1CCN(CC2CCN(c3ccc4c(c3)C(=O)N(C3CCC(=O)NC3=O)C4)CC2)CC1(C)C (stereo partly drawn) [Example 4, 3-(6-(4-((4-((6aS,9S)-2-(3-fluoro-2-hydroxyphenyl)-9-methyl-6,6a,7,8,9,10-hexahydro-5H-pyrazino[1′,2′:4,5]pyrazino[2,3-c]pyridazine-8-carbonyl)-3,3-dimethylpiperazin-1-yl)methyl)piperidin-1-yl)-1-oxoisoindolin-2-yl)piperidine-2,6-dione] | < 100 nM | > 75% | < 100 nM | – | – | < 50%
CC1(C)CN(CC2CCN(c3ccc4c(c3)C(=O)N(C3CCC(=O)NC3=O)C4)CC2)CCN1C(=O)N1CCN2c3cc(-c4cccc(F)c4O)nnc3NC[C@H]2C1 (stereo partly drawn) [Example 5, 3-(6-(4-((4-((S)-2-(3-fluoro-2-hydroxyphenyl)-6,6a,7,8,9,10-hexahydro-5H-pyrazino[1′,2′:4,5]pyrazino[2,3-c]pyridazine-8-carbonyl)-3,3-dimethylpiperazin-1-yl)methyl)piperidin-1-yl)-1-oxoisoindolin-2-yl)piperidine-2,6-dione] | < 100 nM | > 75% | < 100 nM | – | – | < 50%
C[C@@H]1CN(CC2CCN(c3ccc4c(c3)C(=O)N(C3CCC(=O)NC3=O)C4)CC2)C[C@H](C)N1C(=O)N1CCN2c3cc(-c4cc(F)cc(F)c4O)nnc3NC[C@H]2C1 (stereo partly drawn) [Example 15, 3-(6-(4-(((3R,5S)-4-((S)-2-(3,5-difluoro-2-hydroxyphenyl)-6,6a,7,8,9,10-hexahydro-5H-pyrazino[1′,2′:4,5]pyrazino[2,3-c]pyridazine-8-carbonyl)-3,5-dimethylpiperazin-1-yl)methyl)piperidin-1-yl)-1-oxoisoindolin-2-yl)piperidine-2,6-dione] | < 100 nM | > 75% | < 100 nM | – | – | 50 to 75%

The remaining lines, values ahead:

DC50 (SMARCA2) | Dmax (SMARCA2) | DC50 (SMARCA4) | SMARCA4 DMax % (SMARCA4) | SMARCA2 DMax % (SMARCA2) | Dmax (SMARCA4) | SMILES
< 100 nM | – | < 100 nM | – | – | – | CCC12CNc3nnc(-c4cc(F)cc(F)c4O)cc3N1CCN(C(=O)C1(F)CCN(CC3CCN(c4ccc5c(c4)C(=O)N([C@H]4CCC(=O)NC4=O)C5)CC3)CC1)C2 (single isomer, unassigned) [Example 110]
< 100 nM | 50 to 75% | > 1000 nM | – | – | < 50% | CC12CNc3nnc(-c4cccc(F)c4O)cc3N1CCN(C(=O)C1(F)CCN(CC3CCN(c4ccc5c(c4)C(=O)N([C@H]4CCC(=O)NC4=O)C5)CC3)CC1)C2 (single isomer, unassigned) [Example 111]
< 100 nM | > 75% | < 100 nM | A (A=Dmax>75%) | – | – | CC12CNc3nnc(-c4cc(F)cc(F)c4O)cc3N1CCN(C(=O)C1(F)CCN(CC3CCN(c4ccc5c(c4)C(=O)N([C@H]4CCC(=O)NC4=O)C5)CC3)CC1)C2 (single isomer, unassigned) [Example 112]
< 100 nM | – | > 1000 nM | C (C=Dmax<50%) | A (A=Dmax>75%) | – | CC12CNc3nnc(-c4cc(F)cc(F)c4O)cc3N1CCN(C(=O)C1(F)CCN(CC3CCN(c4ccc5c(c4)C(=O)N([C@H]4CCC(=O)NC4=O)C5)CC3)CC1)C2 (single isomer, unassigned) [Example 113]
< 100 nM | > 75% | < 100 nM | – | – | 50 to 75% | CC12CNc3nnc(-c4cccc(F)c4O)cc3N1CCN(C[C@H]1CC[C@H](CN3CCN(c4ccc5c(c4)C(=O)N(C4CCC(=O)NC4=O)C5)CC3)CC1)C2 (single isomer, unassigned) [Example 115]
< 100 nM | – | < 100 nM | – | – | – | CC12CNc3nnc(-c4cccc(F)c4O)cc3N1CCN(C[C@H]1CC[C@H](CN3CCN(c4ccc5c(c4)C(=O)N(C4CCC(=O)NC4=O)C5)CC3)CC1)C2 (single isomer, unassigned) [Example 116]
< 100 nM | > 75% | < 100 nM | – | – | 50 to 75% | CC12CNc3nnc(-c4cccc(F)c4O)cc3N1CCN(C[C@H]1CC[C@H](CN3CCN(c4ccc5c(c4)C(=O)N([C@H]4CCC(=O)NC4=O)C5)CC3)CC1)C2 (single isomer, unassigned) [Example 117]
< 100 nM | – | < 100 nM | – | – | – | CC12CNc3nnc(-c4cccc(F)c4O)cc3N1CCN(C[C@H]1CC[C@H](CN3CCN(c4ccc5c(c4)C(=O)N([C@H]4CCC(=O)NC4=O)C5)CC3)CC1)C2 (single isomer, unassigned) [Example 118]
< 100 nM | > 75% | < 100 nM | – | – | > 75% | C[C@@H]1C[C@H](CN2CCN(c3ccc4c(c3)C(=O)N([C@H]3CCC(=O)NC3=O)C4)CC2)C[C@H](C)N1C(=O)N1CCN2c3cc(-c4cccc(F)c4O)nnc3NCC2(C)C1 (single isomer, unassigned) [Example 120]
< 100 nM | – | < 100 nM | – | – | – | C[C@@H]1C[C@H](CN2CCN(c3ccc4c(c3)C(=O)N([C@H]3CCC(=O)NC3=O)C4)CC2)C[C@H](C)N1C(=O)N1CCN2c3cc(-c4cccc(F)c4O)nnc3NCC2(C)C1 (single isomer, unassigned) [Example 121]
< 100 nM | > 75% | < 100 nM | A (A=Dmax>75%) | – | – | CC1(C)CC(CN2CCN(c3ccc4c(c3)C(=O)N([C@H]3CCC(=O)NC3=O)C4)CC2)CCN1C(=O)N1CCN2c3cc(-c4cccc(F)c4O)nnc3NCC2(C)C1 (single isomer, unassigned) [Example 123]
< 100 nM | – | < 100 nM | B (B=50%<Dmax≤75%) | A (A=Dmax>75%) | – | CC1(C)CC(CN2CCN(c3ccc4c(c3)C(=O)N([C@H]3CCC(=O)NC3=O)C4)CC2)CCN1C(=O)N1CCN2c3cc(-c4cccc(F)c4O)nnc3NCC2(C)C1 (single isomer, unassigned) [Example 124]
